# Assay results published in patent US11261211B2, “19-NOR neuroactive steroids and methods of use thereof” (Sage Therapeutics, Inc., priority 2013, dated 2022).
# Target: α1β2γ2 GABAA receptor (Homo sapiens (Human), UniProt P14867+P47870)
# Assay: Patch clamp electrophysiology of recombinant α1β2γ2 GABAA receptors in LTK cells
# Type: cell-based
# Conditions: 10 μM compound, Qpatch, Ltk cells, GABA EC20 2 μM
# Procedure: Cellular electrophysiology is used to measure the pharmacological properties of our GABAA receptor modulators in heterologous cell systems. Each compound is tested for its ability to affect GABA mediated currents at a submaximal agonist dose (GABA EC20=2 μM). LTK cells are stably transfected with the α1β2γ2 subunits of the GABA receptor and CHO cells are transiently transfected with the α4β3δ subunits via the Lipofecatamine method. Cells were passaged at a confluence of about 50-80% and then seeded onto 35 mm sterile culture dishes containing 2 ml culture complete medium without antibiotics or antimycotics. Confluent clusters of cells are electrically coupled (Pritchett et al., 1988). Because responses in distant cells are not adequately voltage clamped and because of uncertainties about the extent of coupling (Verdoorn et al., 1990), cells were cultivated at a density that enables the recording of single cells (without visible connections to other cells).
# Whole cell currents were measured with HEKA EPC-10 amplifiers using PatchMaster software or by using the high throughput QPatch platform (Sophion). Bath solution for all experiments contained (in mM): NaCl 137 mM, KCl 4 mM, CaCl2 1.8 mM, MgCl2 1 mM, HEPES 10 mM, D-Glucose 10 mM, pH (NaOH) 7.4. In some cases 0.005% cremophor was also added. Intracellular (pipette) solution contained: KCl 130 mM, MgCl2 1 mM, Mg-ATP 5 mM, HEPES 10 mM, EGTA 5 mM, pH 7.2. During experiments, cells and solutions were maintained at room temperature (19° C.-30° C.). For manual patch clamp recordings, cell culture dishes were placed on the dish holder of the microscope and continuously perfused (1 ml/min) with bath solution. After formation of a Gigaohm seal between the patch electrodes and the cell (pipette resistance range: 2.5 MΩ-6.0 MΩ; seal resistance range: >1 GΩ) the cell membrane across the pipette tip was ruptured to assure electrical access to the cell interior (whole-cell patch-configuration). For experiments using the QPatch system, cells were transferred as suspension to the QPatch system in the bath solution and automated whole cell recordings were performed.
# Cells were voltage clamped at a holding potential of −80 mV. For the analysis of test articles, GABA receptors were stimulated by 2 μM GABA after sequential pre-incubation of increasing concentrations of the test article. Pre-incubation duration was 30 s and the duration of the GABA stimulus was 2 s. Test articles were dissolved in DMSO to form stock solutions (10 mM). Test articles were diluted to 0.01, 0.1, 1, and 10 μM in bath solution. All concentrations of test articles were tested on each cell. The relative percentage potentiation was defined as the peak amplitude in response to GABA EC20 in the presence of the test article divided by the peak amplitude in response to GABA EC20 alone, multiplied by 100.
row,SMILES,α1β2γ2 GABA Qpatch in Ltk (Efficacy at 10 μm)
1,C[C@@]1(O)CC[C@H]2[C@H](CC[C@@H]3[C@@H]2CC[C@]2(C)[C@@H](C(=O)Cn4ncc5cnccc54)CC[C@@H]32)C1 [SA-9],B (“B” indicates an efficacy value of >100-500%)
2,C[C@@]1(O)CC[C@H]2[C@H](CC[C@@H]3[C@@H]2CC[C@]2(C)[C@@H](C(=O)Cn4cc5cnccc5n4)CC[C@@H]32)C1 [SA-10],C (“C” indicates an efficacy value of >500%)
3,C[C@@]1(O)CC[C@H]2[C@H](CC[C@@H]3[C@@H]2CC[C@]2(C)[C@@H](C(=O)Cn4ncc5ccncc54)CC[C@@H]32)C1 [SA-21],B (“B” indicates an efficacy value of >100-500%)
4,C[C@@]1(O)CC[C@H]2[C@H](CC[C@@H]3[C@@H]2CC[C@]2(C)[C@@H](C(=O)Cn4ncc5ncccc54)CC[C@@H]32)C1 [SA-3],C (“C” indicates an efficacy value of >500%)

# Same assay, conditions: LTK, 10 μM compound, Qpatch, Ltk cells, GABA EC20 2 μM; read-out: α1β2γ2 GABA Qpatch in Ltk (Efficacy at 10 μm)
row,SMILES,activity at 10 µM
1,C[C@]12CC[C@H]3[C@@H](CC[C@@H]4C[C@@](O)(CF)CC[C@@H]43)[C@@H]1CC[C@@H]2C(=O)Cn1nc2ccc(F)cc2n1 [SA-89],100 to 500%
2,C[C@@]1(O)CC[C@H]2[C@@H](CC[C@@H]3[C@@H]2CC[C@]2(C)[C@@H](C(=O)Cn4nc5ccc(F)cc5n4)CC[C@@H]32)C1 [SB-11],100 to 500%
3,CC[C@@]1(O)CC[C@H]2[C@H](CC[C@@H]3[C@@H]2CC[C@]2(C)[C@@H](C(=O)Cn4nc5ccncc5n4)CC[C@@H]32)C1 [SA-114],> 500%
4,C[C@]12CC[C@H]3[C@@H](CC[C@H]4C[C@@](O)(CF)CC[C@@H]43)[C@@H]1CC[C@@H]2C(=O)Cn1nnc2ccncc21 [SB-26],10 to 100%
5,COc1cccc2c1nnn2CC(=O)[C@H]1CC[C@H]2[C@@H]3CC[C@@H]4C[C@](C)(O)CC[C@@H]4[C@H]3CC[C@]12C [SA-74],100 to 500%
6,C[C@@]1(O)CC[C@H]2[C@H](CC[C@@H]3[C@@H]2CC[C@]2(C)[C@@H](C(=O)Cn4nnc5cccc(F)c54)CC[C@@H]32)C1 [SA-65],> 500%
7,CC[C@@]1(O)CC[C@H]2[C@@H](CC[C@@H]3[C@@H]2CC[C@]2(C)[C@@H](C(=O)Cn4nc5ccncc5n4)CC[C@@H]32)C1 [SB-34],> 500%
8,COc1ccc2c(c1)nnn2CC(=O)[C@H]1CC[C@H]2[C@@H]3CC[C@H]4C[C@@](O)(CF)CC[C@@H]4[C@H]3CC[C@]12C [SG-23],10 to 100%
9,COC[C@@]1(O)CC[C@H]2[C@H](CC[C@@H]3[C@@H]2CC[C@]2(C)[C@@H](C(=O)Cn4nc5ccc(F)cc5n4)CC[C@@H]32)C1 [SA-122],100 to 500%
10,Cc1ccc2nnn(CC(=O)[C@H]3CC[C@H]4[C@@H]5CC[C@@H]6C[C@](C)(O)CC[C@@H]6[C@H]5CC[C@]34C)c2c1 [SA-42],100 to 500%
11,COC[C@@]1(O)CC[C@H]2[C@H](CC[C@@H]3[C@@H]2CC[C@]2(C)[C@@H](C(=O)Cn4cc5ccncc5n4)CC[C@@H]32)C1 [SA-118],> 500%
12,Cc1c2ccccc2nn1CC(=O)[C@H]1CC[C@H]2[C@@H]3CC[C@@H]4C[C@](C)(O)CC[C@@H]4[C@H]3CC[C@]12C [SA-46],> 500%
13,CCOC[C@@]1(O)CC[C@H]2[C@@H](CC[C@@H]3[C@@H]2CC[C@]2(C)[C@@H](C(=O)Cn4nnc5ccccc54)CC[C@@H]32)C1 [SB-52],100 to 500%
14,C[C@]12CC[C@H]3[C@@H](CC[C@@H]4C[C@@](O)(C(F)F)CC[C@@H]43)[C@@H]1CC[C@@H]2C(=O)Cn1nnc2ccccc21 [SA-90],10 to 100%
15,CCOC[C@@]1(O)CC[C@H]2[C@@H](CC[C@@H]3[C@@H]2CC[C@]2(C)[C@@H](C(=O)Cn4nc5ccncc5n4)CC[C@@H]32)C1 [SB-59],100 to 500%
16,COC[C@@]1(O)CC[C@H]2[C@H](CC[C@@H]3[C@@H]2CC[C@]2(C)[C@@H](C(=O)Cn4nnc5ccncc54)CC[C@@H]32)C1 [SA-124],100 to 500%
17,Cn1c(CC(=O)[C@H]2CC[C@H]3[C@@H]4CC[C@@H]5C[C@](C)(O)CC[C@@H]5[C@H]4CC[C@]23C)nc2ccccc21 [SA-105],> 500%
18,C[C@@]1(O)CC[C@H]2[C@@H](CC[C@@H]3[C@@H]2CC[C@]2(C)[C@@H](C(=O)Cn4nc5ccccc5n4)CC[C@@H]32)C1 [SB-2],> 500%
19,C[C@]12CC[C@H]3[C@@H](CC[C@@H]4C[C@@](O)(C(F)F)CC[C@@H]43)[C@@H]1CC[C@@H]2C(=O)Cn1cc2ccncc2n1 [SA-99],> 500%
20,CCOC[C@@]1(O)CC[C@H]2[C@@H](CC[C@@H]3[C@@H]2CC[C@]2(C)[C@@H](C(=O)Cn4ncc5ncccc54)CC[C@@H]32)C1 [SB-54],100 to 500%

row,SMILES,activity at 10 µM
1,C[C@@]1(O)CC[C@H]2[C@H](CC[C@@H]3[C@@H]2CC[C@]2(C)[C@@H](C(=O)Cn4cc5cc(C#N)ccc5n4)CC[C@@H]32)C1 [SA-37],> 500%
2,C[C@]12CC[C@H]3[C@@H](CC[C@@H]4C[C@@](O)(CF)CC[C@@H]43)[C@@H]1CC[C@@H]2C(=O)Cn1cc2ccncc2n1 [SA-85],> 500%
3,COC[C@@]1(O)CC[C@H]2[C@@H](CC[C@@H]3[C@@H]2CC[C@]2(C)[C@@H](C(=O)Cn4nc5ccc(F)cc5n4)CC[C@@H]32)C1 [SB-41],10 to 100%
4,C[C@@]1(O)CC[C@H]2[C@H](CC[C@@H]3[C@@H]2CC[C@]2(C)[C@@H](C(=O)Cn4nnc5cccnc54)CC[C@@H]32)C1 [SA-15],> 500%
5,C[C@]12CC[C@H]3[C@@H](CC[C@@H]4C[C@@](O)(C(F)F)CC[C@@H]43)[C@@H]1CC[C@@H]2C(=O)Cn1nc2ccccc2n1 [SA-92],100 to 500%
6,CCOC[C@@]1(O)CC[C@H]2[C@@H](CC[C@@H]3[C@@H]2CC[C@]2(C)[C@@H](C(=O)Cn4cc5ncccc5n4)CC[C@@H]32)C1 [SB-55],10 to 100%
7,C[C@]12CC[C@H]3[C@@H](CC[C@@H]4C[C@@](O)(CF)CC[C@@H]43)[C@@H]1CC[C@@H]2C(=O)Cn1ncc2ccncc21 [SA-86],100 to 500%
8,C[C@@]1(O)CC[C@H]2[C@H](CC[C@@H]3[C@@H]2CC[C@]2(C)[C@@H](C(=O)Cn4nc5ccc(F)cc5n4)CC[C@@H]32)C1 [SA-62],100 to 500%
9,COC[C@@]1(O)CC[C@H]2[C@@H](CC[C@@H]3[C@@H]2CC[C@]2(C)[C@@H](C(=O)Cn4ncc5ccncc54)CC[C@@H]32)C1 [SB-46],100 to 500%
10,CC[C@@]1(O)CC[C@H]2[C@@H](CC[C@@H]3[C@@H]2CC[C@]2(C)[C@@H](C(=O)Cn4ncc5ccncc54)CC[C@@H]32)C1 [SB-32],100 to 500%
11,CCOC[C@@]1(O)CC[C@H]2[C@@H](CC[C@@H]3[C@@H]2CC[C@]2(C)[C@@H](C(=O)Cn4ncc5ccncc54)CC[C@@H]32)C1 [SB-56],10 to 100%
12,COc1ccc2nnn(CC(=O)[C@H]3CC[C@H]4[C@@H]5CC[C@H]6C[C@@](O)(CF)CC[C@@H]6[C@H]5CC[C@]34C)c2c1 [SG-22],100 to 500%
13,CCOC[C@@]1(O)CC[C@H]2[C@@H](CC[C@@H]3[C@@H]2CC[C@]2(C)[C@@H](C(=O)Cn4nc5ccc(F)cc5n4)CC[C@@H]32)C1 [SB-60],10 to 100%
14,Cc1nn(CC(=O)[C@H]2CC[C@H]3[C@@H]4CC[C@@H]5C[C@](C)(O)CC[C@@H]5[C@H]4CC[C@]23C)c2ccccc12 [SA-45],> 500%
15,COC[C@@]1(O)CC[C@H]2[C@H](CC[C@@H]3[C@@H]2CC[C@]2(C)[C@@H](C(=O)Cn4ncc5ncccc54)CC[C@@H]32)C1 [SA-117],> 500%
16,CC[C@@]1(O)CC[C@H]2[C@H](CC[C@@H]3[C@@H]2CC[C@]2(C)[C@@H](C(=O)Cn4ncc5ncccc54)CC[C@@H]32)C1 [SA-111],> 500%
17,C[C@@]1(O)CC[C@H]2[C@H](CC[C@@H]3[C@@H]2CC[C@]2(C)[C@@H](C(=O)Cn4nc(Cl)c5ccccc54)CC[C@@H]32)C1 [SA-55],100 to 500%
18,CC[C@@]1(O)CC[C@H]2[C@@H](CC[C@@H]3[C@@H]2CC[C@]2(C)[C@@H](C(=O)Cn4ncc5ncccc54)CC[C@@H]32)C1 [SB-30],100 to 500%
19,C[C@]12CC[C@H]3[C@@H](CC[C@H]4C[C@@](O)(CF)CC[C@@H]43)[C@@H]1CC[C@@H]2C(=O)Cn1ncc2ccncc21 [SB-19],100 to 500%

# Same assay, conditions: LTK; potentiation of GABA EC20 (2 μM) current; read-out: GABAa alpha1 (α1β2γ2) Emax (%)
row,SMILES,Emax
1,C[C@@]1(O)CC[C@H]2[C@H](CC[C@@H]3[C@@H]2CC[C@]2(C)[C@@H](C(=O)Cn4ncc5ncccc54)CC[C@@H]32)C1 [SA-3],500 to 1000%

# Same assay, conditions: potentiation of GABA EC20 (2 μM) current; read-out: GABAa alpha1 (α1β2γ2)EC50
row,SMILES,EC50
1,C[C@@]1(O)CC[C@H]2[C@H](CC[C@@H]3[C@@H]2CC[C@]2(C)[C@@H](C(=O)Cn4ncc5ncccc54)CC[C@@H]32)C1 [SA-3],1000 to 2000 nM
